Experiment: Study K-877-12, pharmacokinetics in patients with renal impairment
Format: in vivo, human
Conditions: Japanese patients with renal impairment, even severe

differences in pharmacokinetics (PK) with renal impairment: no meaningful differences
Compound: CC[C@@H](Oc1cccc(CN(CCCOc2ccc(OC)cc2)c2nc3ccccc3o2)c1)C(=O)O [Pemafibrate, (2R)-2-[3-({1,3-benzoxazol-2-yl[3-(4-methoxyphenoxy)propyl]amino}methyl)phenoxy]butanoic acid]

Source: patent US11446282B2, “Methods of treating mixed dyslipidemia and hypertriglycertdemia” (Kowa Company, Ltd., priority 2017, dated 2022)
